Source: paper PMC5698704 (Chemmedchem, 2017)
“And” between values parts separate entries of the source, which are not always exact repeats. Equal values may be shown once.

How the values were obtained:
[1] = molecular target: CDK2/cyclinE(h) (Homo sapiens, UniProt P24941); assay: Merck Millipore KinaseProfiler; assay type: biochemical; conditions: IC50 CDK2/CycE(h), Millipore panel, 10 µM ATP
[2] = tested on: CYP3A4; assay: CYP induction in cultured human hepatocytes; assay type: in vitro ADME
[3] = molecular target: CDK6/cyclinD3(h) (Homo sapiens, UniProt Q00534); assay: Merck Millipore KinaseProfiler; assay type: biochemical
[4] = tested on: MOLM‐13 cells; assay: Proliferation assay MOLM‐13; assay type: cell-based; conditions: Homo sapiens, MOLM-13, 96 h, read-out: MOLM‐13 IC50
[5] = molecular target: CDK9/cyclin T1(h) (Homo sapiens, UniProt P50750); assay: Merck Millipore KinaseProfiler; assay type: biochemical
[6] = tested on: CYP1A2, CYP2C8, CYP2C9, CYP2D6, CYP3A4; assay: CYP inhibition in human liver microsomes; assay type: in vitro ADME
[7] = molecular target: CDK7/cyclinH/MAT1(h) (Homo sapiens, UniProt P50613); assay: Merck Millipore KinaseProfiler; assay type: biochemical
[8] = molecular target: CDK5/p35(h) (Homo sapiens, UniProt Q00535); assay: Merck Millipore KinaseProfiler; assay type: biochemical; conditions: Millipore panel, 10 µM ATP
[9] = Blood/plasma partitioning in rats; assay type: in vitro ADME; conditions: rat, blood and plasma
[10] = tested on: HeLa cells; assay: Proliferation assay HeLa; assay type: cell-based; conditions: Homo sapiens, 96 h, read-out: HeLa IC50
[11] = molecular target: CDK1/cyclinB(h) (Homo sapiens, UniProt P06493); assay: Merck Millipore KinaseProfiler; assay type: biochemical; conditions: IC50 CDK1/CycB(h), Millipore panel, 10 µM ATP
[12] = tested on: rat hepatocytes; assay: Metabolic stability in rat hepatocytes; assay type: in vitro ADME; conditions: predicted blood clearance from rat hepatocytes, 1 μM
[13] = molecular target: CDK3/cyclinE(h) (Homo sapiens, UniProt Q00526); assay: Merck Millipore KinaseProfiler; assay type: biochemical; conditions: IC50 CDK3/CycE(h), Millipore panel, 10 µM ATP
[14] = Caco‐2 permeability assay; assay type: in vitro ADME; conditions: human, Caco-2, pH 7.2
[15] = Metabolic stability in rat liver microsomes; assay type: in vitro ADME; conditions: predicted blood clearance from rat liver microsomes
[16] = tested on: CDK2/CycE; assay: CDK2/CycE kinase assay; assay type: biochemical, human; conditions: ratio of IC50 values CDK2/CDK9, in-house assays
[17] = Rat PK study in vivo
[18] = molecular target: T1, Flt3(h) (Homo sapiens, UniProt P36888); assay: Merck Millipore KinaseProfiler; assay type: biochemical; conditions: Merck Millipore KinaseProfiler panel
T1 sequence (P36888 27-993): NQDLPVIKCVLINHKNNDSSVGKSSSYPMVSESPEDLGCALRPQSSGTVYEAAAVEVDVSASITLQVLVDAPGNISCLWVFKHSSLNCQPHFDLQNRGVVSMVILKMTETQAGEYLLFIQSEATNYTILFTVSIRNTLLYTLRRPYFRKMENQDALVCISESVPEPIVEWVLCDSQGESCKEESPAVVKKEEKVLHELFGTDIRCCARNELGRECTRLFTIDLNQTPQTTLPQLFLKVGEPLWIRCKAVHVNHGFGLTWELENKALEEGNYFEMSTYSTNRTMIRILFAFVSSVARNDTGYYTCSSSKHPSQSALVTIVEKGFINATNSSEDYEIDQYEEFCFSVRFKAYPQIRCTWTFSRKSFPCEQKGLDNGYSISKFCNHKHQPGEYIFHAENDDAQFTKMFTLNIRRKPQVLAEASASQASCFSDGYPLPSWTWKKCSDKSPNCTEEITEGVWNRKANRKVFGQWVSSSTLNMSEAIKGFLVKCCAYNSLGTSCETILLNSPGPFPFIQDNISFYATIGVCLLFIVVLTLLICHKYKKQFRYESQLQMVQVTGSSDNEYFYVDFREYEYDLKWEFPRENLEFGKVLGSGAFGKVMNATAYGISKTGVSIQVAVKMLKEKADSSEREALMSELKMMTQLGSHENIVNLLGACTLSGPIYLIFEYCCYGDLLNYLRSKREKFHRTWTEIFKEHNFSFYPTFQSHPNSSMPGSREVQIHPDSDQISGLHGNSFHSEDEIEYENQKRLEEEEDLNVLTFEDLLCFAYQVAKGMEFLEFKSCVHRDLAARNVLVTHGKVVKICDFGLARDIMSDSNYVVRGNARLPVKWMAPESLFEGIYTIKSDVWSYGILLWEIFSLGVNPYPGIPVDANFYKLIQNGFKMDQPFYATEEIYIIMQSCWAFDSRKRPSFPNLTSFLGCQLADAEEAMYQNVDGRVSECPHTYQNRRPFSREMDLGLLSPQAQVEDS

[19] = tested on: MV4‐11 cells; assay: Antiproliferative activity MV4‐11; assay type: cell-based; conditions: Homo sapiens, MV4-11, read-out: MV4‐11 IC50
[20] = Equilibrium shake flask solubility assay; assay type: physicochemical; conditions: aqueous solubility, phosphate buffer pH 6.5, 24 h; solid state not characterized
[21] = tested on: MOLM‐13 human AML model; assay: MOLM‐13 human AML xenograft model in mice; assay type: in vivo, mouse; conditions: throughout the study, all BAY 1143572 regimens
[22] = tested on: MV4‐11 human AML model; assay: MV4‐11 human AML xenograft model in rats; assay type: in vivo, rat
[23] = MV4‐11 human AML xenograft model in rats; assay type: in vivo, rat; conditions: female, athymic nude, rat, in vivo, po, 12 mg kg^−1

Sequence of CDK9/cyclin T1(h) (P50750 whole entry): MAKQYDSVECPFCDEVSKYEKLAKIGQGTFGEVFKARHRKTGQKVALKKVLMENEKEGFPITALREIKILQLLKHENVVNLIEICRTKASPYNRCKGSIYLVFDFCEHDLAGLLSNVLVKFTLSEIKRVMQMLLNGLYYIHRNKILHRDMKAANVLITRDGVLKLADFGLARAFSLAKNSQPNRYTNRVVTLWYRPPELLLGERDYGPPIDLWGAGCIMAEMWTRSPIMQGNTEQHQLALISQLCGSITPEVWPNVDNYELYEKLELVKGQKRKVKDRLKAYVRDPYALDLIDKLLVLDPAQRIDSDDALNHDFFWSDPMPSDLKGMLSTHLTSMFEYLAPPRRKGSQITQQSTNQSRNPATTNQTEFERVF
Sequence of CDK9/cyclin T1(h) (O60563 whole entry partner): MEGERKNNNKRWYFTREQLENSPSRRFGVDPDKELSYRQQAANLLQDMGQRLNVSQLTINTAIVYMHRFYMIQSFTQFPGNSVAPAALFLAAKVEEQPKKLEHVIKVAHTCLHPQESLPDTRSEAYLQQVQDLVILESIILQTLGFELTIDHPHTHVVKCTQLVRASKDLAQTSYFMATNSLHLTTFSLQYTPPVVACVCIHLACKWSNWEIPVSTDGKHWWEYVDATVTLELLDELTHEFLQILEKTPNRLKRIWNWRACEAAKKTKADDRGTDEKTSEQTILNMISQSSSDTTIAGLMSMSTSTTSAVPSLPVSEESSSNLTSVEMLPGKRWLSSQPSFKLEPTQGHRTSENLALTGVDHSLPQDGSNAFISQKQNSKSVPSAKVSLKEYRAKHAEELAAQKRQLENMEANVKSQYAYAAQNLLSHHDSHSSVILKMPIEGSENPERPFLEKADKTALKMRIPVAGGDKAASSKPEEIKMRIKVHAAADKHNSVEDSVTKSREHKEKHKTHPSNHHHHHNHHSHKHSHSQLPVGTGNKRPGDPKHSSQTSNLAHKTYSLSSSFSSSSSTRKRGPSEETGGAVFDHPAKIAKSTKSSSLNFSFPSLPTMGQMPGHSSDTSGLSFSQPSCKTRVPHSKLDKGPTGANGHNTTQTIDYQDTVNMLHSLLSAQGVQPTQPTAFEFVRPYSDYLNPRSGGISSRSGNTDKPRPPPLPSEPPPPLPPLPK
Sequence of CDK3/cyclinE(h) (Q00526 whole entry): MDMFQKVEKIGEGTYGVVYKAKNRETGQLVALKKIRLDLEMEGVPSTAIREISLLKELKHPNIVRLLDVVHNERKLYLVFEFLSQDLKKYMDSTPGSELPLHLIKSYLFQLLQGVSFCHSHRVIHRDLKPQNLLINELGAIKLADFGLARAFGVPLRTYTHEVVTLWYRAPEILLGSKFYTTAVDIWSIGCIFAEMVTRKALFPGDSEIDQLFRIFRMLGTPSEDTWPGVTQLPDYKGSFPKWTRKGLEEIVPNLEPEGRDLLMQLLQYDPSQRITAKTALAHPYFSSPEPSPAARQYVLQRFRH
Sequence of CDK3/cyclinE(h) (P24864 whole entry, further chain): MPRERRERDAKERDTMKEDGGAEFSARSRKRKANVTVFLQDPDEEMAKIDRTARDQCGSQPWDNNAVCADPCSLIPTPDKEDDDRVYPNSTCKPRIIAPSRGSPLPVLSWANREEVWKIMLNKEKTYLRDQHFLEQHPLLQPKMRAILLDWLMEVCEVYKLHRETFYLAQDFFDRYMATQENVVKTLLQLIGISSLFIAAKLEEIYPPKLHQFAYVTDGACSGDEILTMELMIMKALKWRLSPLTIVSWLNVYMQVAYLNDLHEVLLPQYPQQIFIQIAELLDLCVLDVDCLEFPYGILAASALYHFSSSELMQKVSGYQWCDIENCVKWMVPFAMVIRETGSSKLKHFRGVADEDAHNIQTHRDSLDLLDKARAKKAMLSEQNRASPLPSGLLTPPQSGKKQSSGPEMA
Sequence of CDK1/cyclinB(h) (P14635 whole entry): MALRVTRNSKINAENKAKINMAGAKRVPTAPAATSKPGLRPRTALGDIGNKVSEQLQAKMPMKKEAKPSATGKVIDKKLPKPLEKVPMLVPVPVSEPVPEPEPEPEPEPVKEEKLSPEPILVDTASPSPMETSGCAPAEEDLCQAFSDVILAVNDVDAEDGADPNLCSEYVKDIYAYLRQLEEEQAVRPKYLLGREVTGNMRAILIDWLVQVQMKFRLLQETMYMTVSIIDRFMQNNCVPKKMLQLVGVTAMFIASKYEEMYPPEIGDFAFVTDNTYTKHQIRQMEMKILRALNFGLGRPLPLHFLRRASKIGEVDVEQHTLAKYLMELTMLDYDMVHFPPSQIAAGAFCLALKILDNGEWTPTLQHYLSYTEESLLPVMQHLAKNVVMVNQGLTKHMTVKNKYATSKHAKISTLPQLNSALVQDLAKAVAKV
Sequence of CDK1/cyclinB(h) (P06493 whole entry): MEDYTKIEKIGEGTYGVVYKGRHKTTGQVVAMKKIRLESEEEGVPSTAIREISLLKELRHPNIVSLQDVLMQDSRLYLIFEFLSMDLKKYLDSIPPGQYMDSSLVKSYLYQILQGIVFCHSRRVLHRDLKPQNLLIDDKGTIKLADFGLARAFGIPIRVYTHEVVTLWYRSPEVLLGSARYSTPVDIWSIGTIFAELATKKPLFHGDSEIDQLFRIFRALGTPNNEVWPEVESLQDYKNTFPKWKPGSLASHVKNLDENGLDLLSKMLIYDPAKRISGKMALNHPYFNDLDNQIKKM
Sequence of CDK7/cyclinH/MAT1(h) (P50613 whole entry): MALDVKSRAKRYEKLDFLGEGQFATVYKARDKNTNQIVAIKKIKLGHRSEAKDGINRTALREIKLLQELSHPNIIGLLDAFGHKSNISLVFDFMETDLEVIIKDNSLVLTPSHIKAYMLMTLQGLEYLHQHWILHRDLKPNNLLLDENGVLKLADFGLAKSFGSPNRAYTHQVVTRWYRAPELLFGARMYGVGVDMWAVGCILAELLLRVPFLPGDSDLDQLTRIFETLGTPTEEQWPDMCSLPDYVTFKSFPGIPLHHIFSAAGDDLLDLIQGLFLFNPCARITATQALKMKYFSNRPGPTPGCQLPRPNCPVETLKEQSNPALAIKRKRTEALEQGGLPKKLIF
Sequence of CDK7/cyclinH/MAT1(h) (P51946 whole entry partner): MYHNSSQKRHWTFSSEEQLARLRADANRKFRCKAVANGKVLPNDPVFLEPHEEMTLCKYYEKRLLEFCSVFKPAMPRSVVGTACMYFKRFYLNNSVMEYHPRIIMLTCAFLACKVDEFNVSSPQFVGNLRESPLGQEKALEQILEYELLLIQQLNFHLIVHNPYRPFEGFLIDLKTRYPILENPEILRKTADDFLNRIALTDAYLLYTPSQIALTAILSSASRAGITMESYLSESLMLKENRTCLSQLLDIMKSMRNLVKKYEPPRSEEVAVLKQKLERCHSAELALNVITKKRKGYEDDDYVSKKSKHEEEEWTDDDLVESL
Sequence of CDK7/cyclinH/MAT1(h) (P51948 whole entry partner): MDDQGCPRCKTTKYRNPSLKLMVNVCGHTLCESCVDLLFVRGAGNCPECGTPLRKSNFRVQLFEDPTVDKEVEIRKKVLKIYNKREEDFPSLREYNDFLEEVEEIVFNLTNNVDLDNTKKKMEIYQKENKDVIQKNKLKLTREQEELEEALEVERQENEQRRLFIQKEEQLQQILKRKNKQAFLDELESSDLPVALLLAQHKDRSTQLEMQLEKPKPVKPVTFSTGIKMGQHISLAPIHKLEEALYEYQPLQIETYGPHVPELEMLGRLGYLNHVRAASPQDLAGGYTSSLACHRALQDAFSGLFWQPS
Sequence of CDK5/p35(h) (Q00535 whole entry): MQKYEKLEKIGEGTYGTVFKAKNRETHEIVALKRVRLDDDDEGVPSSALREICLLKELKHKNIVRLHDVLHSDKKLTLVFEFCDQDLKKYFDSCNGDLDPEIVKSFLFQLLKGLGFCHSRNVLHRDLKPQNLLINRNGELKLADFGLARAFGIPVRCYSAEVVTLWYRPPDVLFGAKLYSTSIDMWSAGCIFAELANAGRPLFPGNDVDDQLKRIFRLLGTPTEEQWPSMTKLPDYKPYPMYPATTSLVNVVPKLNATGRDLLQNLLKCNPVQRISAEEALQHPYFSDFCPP
Sequence of CDK5/p35(h) (Q15078 whole entry partner): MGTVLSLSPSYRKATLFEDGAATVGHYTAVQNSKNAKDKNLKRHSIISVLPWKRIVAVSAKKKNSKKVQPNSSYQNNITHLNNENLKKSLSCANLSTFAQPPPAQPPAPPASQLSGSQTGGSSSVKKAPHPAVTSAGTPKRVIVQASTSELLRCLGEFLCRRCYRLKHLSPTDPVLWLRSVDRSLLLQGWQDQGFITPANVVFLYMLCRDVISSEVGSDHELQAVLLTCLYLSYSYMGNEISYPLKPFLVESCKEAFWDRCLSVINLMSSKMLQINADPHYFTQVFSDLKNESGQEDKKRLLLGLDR
Sequence of CDK6/cyclinD3(h) (Q00534 whole entry): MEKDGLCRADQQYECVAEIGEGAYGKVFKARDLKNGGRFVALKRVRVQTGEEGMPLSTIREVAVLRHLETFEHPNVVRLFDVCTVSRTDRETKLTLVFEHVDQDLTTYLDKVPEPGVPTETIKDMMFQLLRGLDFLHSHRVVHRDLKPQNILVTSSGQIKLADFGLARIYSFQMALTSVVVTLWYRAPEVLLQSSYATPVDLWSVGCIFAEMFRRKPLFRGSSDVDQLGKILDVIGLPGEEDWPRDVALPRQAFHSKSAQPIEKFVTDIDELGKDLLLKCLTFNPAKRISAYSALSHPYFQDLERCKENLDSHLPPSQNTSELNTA
Sequence of CDK6/cyclinD3(h) (P30281 whole entry partner): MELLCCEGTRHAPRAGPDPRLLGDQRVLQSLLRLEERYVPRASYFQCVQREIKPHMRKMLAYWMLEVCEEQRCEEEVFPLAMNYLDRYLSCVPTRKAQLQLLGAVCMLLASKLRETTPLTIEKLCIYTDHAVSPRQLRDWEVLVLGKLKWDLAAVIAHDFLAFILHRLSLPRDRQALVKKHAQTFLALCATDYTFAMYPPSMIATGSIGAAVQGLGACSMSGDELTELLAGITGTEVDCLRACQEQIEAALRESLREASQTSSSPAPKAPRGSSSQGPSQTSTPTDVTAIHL

## COc1cc(F)ccc1-c1ncnc(Nc2cccc(CS(N)(=O)=O)c2)n1 [BAY‐958, 1‐(3‐{[4‐(4‐Fluoro‐2‐methoxyphenyl)‐1,3,5‐triazin‐2‐yl]amino}phenyl)methanesulfonamide]
[1]
  IC50: 470 nM
[2]
  Induction of CYP3A4 in vitro: not observed
[3]
  IC50: 4400 nM
[4]
  IC50: 280 nM
[5]
  IC50: 5 nM
[5]; Millipore panel, relative to CDK9/CycT1 IC50
  selectivity vs. other CDKs: > 90
[6]
  IC50: > 20000 nM
[7]
  IC50: > 10000 nM
[8]
  IC50: 800 nM
[9]
  blood plasma ratio: 3
[10]
  IC50: 1000 nM
[11]
  IC50: 690 nM
[12]
  CLb, ratHep: 5.5 mL/min/kg
[13]
  IC50: 570 nM
[14]
  efflux ratio at 2 h, 2 μM: 15
[15]
  CLb, ratLM: 8 mL/min/kg
[16]
  Selectivity vs. CDK2, ratio of IC50 values: 98
[17]
  CLb, rat in vivo, i.v.: 8.3 mL/min/kg and 8.33 mL/min/kg
[17]; male, Wistar, plasma, iv
  half-life: 42 min
[17]; oral bioavailability
  F, rat in vivo, p.o.: 10%

## COc1cc(F)ccc1-c1ncnc(Nc2cccc(C[S@](C)(=N)=O)c2)n1 [BAY 1143572, (R)‐4‐(4‐Fluoro‐2‐methoxyphenyl)‐N‐{3‐[(S‐methylsulfonimidoyl)methyl]phenyl}‐1,3,5‐triazin‐2‐amine]
[2]
  Induction of CYP3A4 in vitro: not observed
[18]
  activity against Flt3: did not show relevant activity
[19]
  IC50: 890 nM
[4]
  IC50: 310 nM
[6]
  IC50: > 20000 nM
[20]
  Sw, pH 6.5: 479 mg L^−1
[10]
  IC50: 920 nM
[13]
  IC50: 890 nM
[21]
  mean body weight reduction: less than 10%
[22]; 12 mg kg^−1 daily oral for 14 days
  tumor response: almost complete tumor remission
[22]; 57 days after initial inoculation, after 12 mg kg^−1 daily for 14 days
  tumor regrowth at the conclusion of the experiment: no tumor regrowth in nine of the 12 test animals
[23]
  MTD at 14 days: 12 mg/kg
[17]
  CLb, rat in vivo, i.v.: 18.3 mL/min/kg
